From publication PMC11522050, “Cloning, expression and characterisation of a novel mollusc α-1,2-Fucosyltransferase from Crassostrea gigas (CgFUT2)” (Glycoconjugate Journal, 2024)

Legend:
CgFUT2 [1] = target: T1, CgFUT2 (Magallana gigas, UniProt A0AA95ZAK5); assay: fucosyl transfer to pNP-lactose, HPLC with UV detection; format: biochemical; settings: 0.25 mM GDP; 3 mM GDP-Fuc, 0.5 mM pNP-β-lactose, 20 mM MnCl2, 2 mM ATP, MES pH 7.0, 37 °C; Sf9 lysate
T1 construct: crude cell lysate used (purification failed)
T1 sequence (A0AA95ZAK5 1-350): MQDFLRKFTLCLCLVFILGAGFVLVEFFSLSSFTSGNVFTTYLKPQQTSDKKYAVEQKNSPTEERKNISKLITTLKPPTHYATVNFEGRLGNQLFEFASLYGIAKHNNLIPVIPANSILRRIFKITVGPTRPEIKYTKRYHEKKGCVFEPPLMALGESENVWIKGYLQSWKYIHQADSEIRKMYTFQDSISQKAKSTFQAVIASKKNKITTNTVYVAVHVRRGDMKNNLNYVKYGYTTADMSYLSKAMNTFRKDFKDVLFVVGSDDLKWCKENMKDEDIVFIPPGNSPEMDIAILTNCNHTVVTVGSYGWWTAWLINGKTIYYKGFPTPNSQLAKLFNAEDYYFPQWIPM

CgFUT2 [2] = target: T1, CgFUT2; assay: fucosyl transfer, HPLC with UV detection; product by NMR; format: biochemical; settings: acceptor; 3 mM GDP-Fuc, 20 mM MnCl2, MES pH 7.0, 37 °C; control Sf9 lysate without enzyme as blank

% decrease of activity at 0.25 mM (CgFUT2 [1]) [%] | Structure (SMILES) | fucosyl transfer, HPLC with UV detection; product by NMR (CgFUT2 [2])
30 | Nc1nc2c(ncn2[C@@H]2O[C@H](COP(=O)(O)OP(=O)(O)O)[C@@H](O)[C@H]2O)c(=O)[nH]1 [GDP] | 
 | O=[N+]([O-])c1ccc(O[C@@H]2O[C@H](CO)[C@@H](O[C@@H]3O[C@H](CO)[C@H](O)[C@H](O)[C@H]3O)[C@H](O)[C@H]2O)cc1 [pNP-β-lactose] | Sf9 cell lysate expressing CgFUT2 and a control Sf9 cell lysate was assessed using pNP-β-lactose
